Assay results published in patent publication US20160168195A1, “OLIGOPEPTIDES AND PROCESS FOR PREPARATION THEREOF” (Council of Scientific & Industrial Research, priority 2011, published 2016).

Key:
[1] = tested on: human cervical cancer cell line (HeLa); experiment: Determination of IC50 in cancer cell lines (cell counting, trypan blue), HeLa; type: cell-based; settings: 24 h with compound (1-40 nM), inhibition of cell proliferation, read-out: IC50 against He La cells
Method: (§1) Then the medium was replaced with fresh medium containing vehicle (0.1% DMSO) or different concentrations of compounds (1-40 nM) and the cells were grown for an additional 24 h. Both attached and floating cells were harvested and counted after staining with trypan blue (Rathinasamy et al, BMC Cancer 2010; 10:213). Percentage inhibition of cell proliferation was plotted against compound concentration using Origin Pro 7.5 software (Table 2).

MCF-7 cells = experiment: Determination of IC50 in cancer cell lines (cell counting, trypan blue), MCF-7; type: cell-based, human; settings: MCF-7 (breast cancer)
Method: as §1

[2] = tested on: microtubules of HeLa cells; experiment: Effect on interphase and mitotic microtubules of HeLa cells (immunostaining); type: cell-based, human
Method: Effect of Compound 5 on interphase and mitotic microtubules of HeLa cells: HeLa cells were seeded at a density of 0.6×10^5 cells/mL and were grown as monolayer on glass cover slips. Compounds diluted in Dimethyl sulfoxide (DMSO) (0.1% final concentration) were added to the culture medium 24 h after seeding. Then, the medium was replaced with fresh medium containing vehicle (0.1% DMSO) or different concentrations (7, 15, 30 nM) of compound 5 and the incubation continued for further 24 h. The cells were then fixed with 3.7% formaldehyde at 37° C. for 30 min and immunostained using tubulin antibody (FIGS. 4 and 5) (Mohan R and Panda D, Cancer Res. 2008, 68: 6181). The DNA was stained using Hoechst 33258 dye. The images were visualized by TE Eclipse 2000U fluorescence microscope (Nikon, Tokyo, Japan) and analyzed with Image-Pro Plus software.

Goat brain tubulin = experiment: Microtubule polymerization assay (light scattering); type: biochemical; settings: tubulin 10 μM, 30 min, compared with compounds 1, 2, 3
Method: Microtubule polymerization assay: Goat brain tubulin (10 μM) was incubated without or with different compounds 1, 2, 3 and compound 5 (5 μM) in microtubule assembly buffer (1 M monosodium glutamate, 3 mM MgCl2, 1 mM EGTA and 25 mM PIPES pH 6.8) on ice for 20 minutes. Then, GTP (1 mM) was added to the reaction mixture. The assembly of tubulin was monitored at 37° C. using a spectrofluorometer for 30 min. Similar experiment was done with compound 5 (1, 5, 7 and 10 μM). MAPs-rich tubulin (1 mg/mL) was incubated without or with different concentrations of compound 5 (1, 3, 5 and 10 μM) in PEM buffer (25 mM pipes pH 6.8 containing 3 mM MgCl2 and 1mM EGTA) for 15 min on ice and then, 1 mM GTP was added to the reaction mixture. The effect of D1, D2, D3 and D5 on the assembly kinetics was monitored as described above for purified tubulin (FIG. 3) (Gupta and Panda, Biochemistry 2002; 41:13029) to study depolymerization of microtubules which is a mechanism of anticancer activity.

HeLa cells [3] = experiment: Apoptosis by annexin V and propidium iodide staining; type: cell-based, human; settings: HeLa, 7, 15, 30 nM, 24 h
Method: (§2) After 40 h of incubation, cells were trypsinized and collected by centrifugation. After washing pellet twice in PBS, the cells were lysed in buffer (50 mM Tris pH 8.0, 10 mM EDTA, 0.5% sarcosine, and 0.5 mg/mL proteinase K), and incubated at 50° C. for 1 h in the heating block. RNase A (1 mg/mL) was added and incubation was further extended for 1 h. The samples were allowed to come to 25° C. Gel electrophoresis was done using 2% agarose and the fragmented genomic DNA visualized after staining with ethidium bromide using UV gel documentation system (FIG. 2) (Rathinasamy et al, FEBS J 2006; 273:4114). HeLa cells were incubated with different concentrations of compound 5 (7, 15 and 30 nM) for 24 h. Cells were stained with annexin V and propidium iodide. The number of cells undergoing apoptosis was estimated by counting the annexin V and propidium iodide positive cells (FIG. 13).

HeLa cells [4] = experiment: Apoptosis detection by DNA fragmentation assay; type: cell-based, human; settings: HeLa, 7, 15, 30 nM, 40 h
Method: as §2

MDA-MB-231 cells = experiment: Determination of IC50 in cancer cell lines (cell counting, trypan blue), MDA-MB-231; type: cell-based, human; settings: MDA-MB-231 (highly metastatic breast cancer)
Method: as §1

[5] = tested on: solid tumors and soft tissue sarcomas; settings: cited from earlier work
[6] = in vivo; cited from earlier work

CC[C@H](C)C(/C=C/C(=O)NCC1O[C@@H](C(=O)N[C@@H](Cc2ccccc2)C2=NCCS2)[C@@H](OC)[C@@H]1OC)N(C)C(=O)[C@@H](NC(=O)[C@@H](NC)C(C)C)C(C)C (stereo partly drawn) [Compound 1, Dov(R^1═H)-Val-(4S,5S)-Dil(X,Y═CH)-SAA(2R)-Doe(R^2=2-(4,5-dihydrothiazolyl), n=1)]
IC50 [1]: 8.7 nM

CC[C@H](C)C(/C=C/C(=O)NCC1O[C@@H](C(=O)N[C@@H](Cc2ccccc2)C2=NCCS2)[C@@H](OC)[C@@H]1OC)N(C)C(=O)[C@@H](NC(=O)[C@H](C(C)C)N(C)C)C(C)C (stereo partly drawn) [Compound 2, Dov(R^1=Me)-Val-(4S,5S)-Dil(X,Y═CH)-SAA(2R)-Doe(R^2=2-(4,5-dihydrothiazolyl), n=1)]
IC50 [1]: 8.8 nM

CC[C@H](C)C([C@H](CC(=O)NCC1O[C@H](C(=O)N[C@@H](Cc2ccccc2)c2nccs2)[C@@H](OC)[C@@H]1OC)OC)N(C)C(=O)[C@@H](NC(=O)[C@@H](NC)C(C)C)C(C)C (stereo partly drawn) [Compound 3, Dov(R^1═H)-Val-(3S,4S,5S)-Dil(X═C(OCH3)H,Y═CH2)-SAA(2S)-Doe(R^2=2-(thiazolyl), n=1)]
IC50 [1]: 9.9 nM

CC[C@H](C)C([C@H](CC(=O)NCC1O[C@H](C(=O)N[C@@H](Cc2ccccc2)c2nccs2)[C@@H](OC)[C@@H]1OC)OC)N(C)C(=O)[C@@H](NC(=O)[C@H](C(C)C)N(C)C)C(C)C (stereo partly drawn) [Compound 4, Dov(R^1=Me)-Val-(3S,4S,5S)-Dil(X═C(OCH3)H,Y═CH2)-SAA(2S)-Doe(R^2=2-(thiazolyl), n=1)]
IC50 [1]: 16 nM

CC[C@H](C)C([C@@H](CC(=O)NCC1O[C@H](C(=O)NCCc2ccccc2)[C@@H](OC)[C@@H]1OC)OC)N(C)C(=O)[C@@H](NC(=O)[C@@H](NC)C(C)C)C(C)C (stereo partly drawn) [Compound 5, Dov(R^1═H)-Val-(3R,4S,5S)-Dil(X═C(OCH3)H,Y═CH2)-SAA(2S)-Doe(R^2═H, n=1)]
inhibition of proliferation of MCF-7 cells (in words) (MCF-7 cells): inhibited proliferation
IC50 (MCF-7 cells; 24 h, read-out: IC50 values for compound 5, MCF-7 cells): 15 ± 7 nM
IC50 [1]: 6.8 nM
effect on interphase microtubules of HeLa cells (in words) ([2]; 7, 15, 30 nM, 24 h): perturbed microtubule network
effect on mitotic microtubules of HeLa cells (in words) ([2]; 7, 15, 30 nM, 24 h): perturbed microtubule network
depolymerization of interphase and mitotic microtubules (in words) ([2]; at 15 to 30 nM): showed depolymerization of interphase and mitotic microtubules
effect on assembly of purified tubulin, relative potency (in words) (Goat brain tubulin): maximum potency
induction of apoptosis (Annexin V and PI staining, in words) (HeLa cells [3]): induced apoptosis
genomic DNA fragmentation (in words) (HeLa cells [4]): DNA fragmentation
genomic DNA fragmentation (in words) (HeLa cells [4]; listed as D5): caused genomic DNA fragmentation
inhibition of proliferation of MDA-MB-231 cells (in words) (MDA-MB-231 cells): inhibited proliferation
IC50 (MDA-MB-231 cells; 24 h, read-out: IC50 values for compound 5, MDA-MB-231 cells): 13 ± 5 nM

CC[C@H](C)C([C@@H](CC(=O)NCC1O[C@@H](C(=O)NCCc2ccccc2)[C@@H](OC)[C@@H]1OC)OC)N(C)C(=O)[C@@H](NC(=O)[C@@H](NC)C(C)C)C(C)C (stereo partly drawn) [Compound 6, Dov(R^1═H)-Val-(3R,4S,5S)-Dil(X═C(OCH3)H,Y═CH2)-SAA(2R)-Doe(R^2═H, n=1)]
IC50 [1]: 15 nM

CC[C@H](C)C([C@H](O)CC(=O)NCC1O[C@@H](C(=O)NCc2ccccc2)[C@@H](OC)[C@@H]1OC)N(C)C(=O)[C@@H](NC(=O)[C@@H](NC)C(C)C)C(C)C (stereo partly drawn) [Compound 7, Dov(R^1═H)-Val-(3R,4S,5S)-Dil(X═C(OH)H,Y═CH2)-SAA(2R)-Doe(R^2═H, n=0)]
IC50 [1]: 16 nM

CC[C@H](C)C([C@H](O)CC(=O)NCC1O[C@H](C(=O)NCc2ccccc2)[C@@H](OC)[C@@H]1OC)N(C)C(=O)[C@@H](NC(=O)[C@@H](NC)C(C)C)C(C)C (stereo partly drawn) [Compound 8, Dov(R^1═H)-Val-(3R,4S,5S)-Dil(X═C(OH)H,Y═CH2)-SAA(2S)-Doe(R^2═H, n=0)]
IC50 [1]: 12 nM

Dolastatin-10
responses in phase I and II clinical trials (in words) ([5]; variety of solid tumors and soft tissue sarcomas, Von Mehren et al 2004): did not demonstrate any responses

Dolastatin-15
side effects (in words) [6]: severe side effects such as arterial hypertension and myocardial infarction

TZT-1027
activity in Phase II trials (in words) ([5]; Phase II, Patel et al 2006): no activity
